Measurements from ChEMBL document CHEMBL1671627, “Increasing trends in antimicrobial resistance among clinically important anaerobes and Bacteroides fragilis isolates causing nosocomial infections: emerging resistance to carbapenems” (2008).

Columns and labels:
[1] = test system: Bacteroides fragilis; assay: Antibacterial activity against Bacteroides fragilis assessed as susceptible isolates by CLSI agar dilution method; type: functional
[2] = test system: Bacteroides fragilis; assay: Antibacterial activity against Bacteroides fragilis assessed as resistant isolates by CLSI agar dilution method; type: functional
[3] = test system: Bacteroides thetaiotaomicron; assay: Antibacterial activity against beta-lactamase producing Bacteroides thetaiotaomicron assessed as susceptible isolates by CLSI agar dilution method; type: functional
[4] = test system: Bacteroides thetaiotaomicron; assay: Antibacterial activity against beta-lactamase producing Bacteroides thetaiotaomicron assessed as resistant isolates by CLSI agar dilution method; type: functional
[5] = test system: Phocaeicola vulgatus; assay: Antibacterial activity against beta-lactamase producing Bacteroides vulgatus by CLSI agar dilution method; type: functional
[6] = test system: Phocaeicola vulgatus; assay: Antibacterial activity against beta-lactamase producing Bacteroides vulgatus assessed as susceptible isolates by CLSI agar dilution method; type: functional
[7] = test system: Phocaeicola vulgatus; assay: Antibacterial activity against beta-lactamase producing Bacteroides vulgatus assessed as resistant isolates by CLSI agar dilution method; type: functional
[8] = test system: Bacteroides uniformis; assay: Antibacterial activity against beta-lactamase producing Bacteroides uniformis by CLSI agar dilution method; type: functional
[9] = test system: Bacteroides uniformis; assay: Antibacterial activity against beta-lactamase producing Bacteroides uniformis assessed as susceptible isolates by CLSI agar dilution method; type: functional
[10] = test system: Bacteroides uniformis; assay: Antibacterial activity against beta-lactamase producing Bacteroides uniformis assessed as resistant isolates by CLSI agar dilution method; type: functional
[11] = test system: Bacteroides caccae; assay: Antibacterial activity against beta-lactamase producing Bacteroides caccae by CLSI agar dilution method; type: functional
[12] = test system: Bacteroides caccae; assay: Antibacterial activity against beta-lactamase producing Bacteroides caccae assessed as susceptible isolates by CLSI agar dilution method; type: functional
[13] = test system: Bacteroides caccae; assay: Antibacterial activity against beta-lactamase producing Bacteroides caccae assessed as resistant isolates by CLSI agar dilution method; type: functional
[14] = test system: Fusobacterium varium; assay: Antibacterial activity against Fusobacterium varium by CLSI agar dilution method; type: functional
[15] = test system: Fusobacterium nucleatum; assay: Antibacterial activity against Fusobacterium nucleatum by CLSI agar dilution method; type: functional
[16] = test system: Fusobacterium mortiferum; assay: Antibacterial activity against Fusobacterium mortiferum by CLSI agar dilution method; type: functional
[17] = test system: Fusobacterium necrophorum; assay: Antibacterial activity against Fusobacterium necrophorum by CLSI agar dilution method; type: functional
[18] = test system: Fusobacterium varium; assay: Antibacterial activity against Fusobacterium varium assessed as susceptible isolates by CLSI agar dilution method; type: functional
[19] = test system: Fusobacterium nucleatum; assay: Antibacterial activity against Fusobacterium nucleatum assessed as susceptible isolates by CLSI agar dilution method; type: functional
[20] = test system: Fusobacterium mortiferum; assay: Antibacterial activity against Fusobacterium mortiferum assessed as susceptible isolates by CLSI agar dilution method; type: functional
[21] = test system: Fusobacterium necrophorum; assay: Antibacterial activity against Fusobacterium necrophorum assessed as susceptible isolates by CLSI agar dilution method; type: functional
[22] = test system: Fusobacterium varium; assay: Antibacterial activity against Fusobacterium varium assessed as resistant isolates by CLSI agar dilution method; type: functional
[23] = test system: Fusobacterium nucleatum; assay: Antibacterial activity against Fusobacterium nucleatum assessed as resistant isolates by CLSI agar dilution method; type: functional
[24] = test system: Fusobacterium mortiferum; assay: Antibacterial activity against Fusobacterium mortiferum assessed as resistant isolates by CLSI agar dilution method; type: functional
[25] = test system: Fusobacterium necrophorum; assay: Antibacterial activity against Fusobacterium necrophorum assessed as resistant isolates by CLSI agar dilution method; type: functional
[26] = test system: Prevotella buccae; assay: Antibacterial activity against Prevotella buccae by CLSI agar dilution method; type: functional; conditions: Segatella buccae
[27] = test system: Prevotella bivia; assay: Antibacterial activity against Prevotella bivia by CLSI agar dilution method; type: functional
[28] = test system: Prevotella intermedia; assay: Antibacterial activity against Prevotella intermedia by CLSI agar dilution method; type: functional
[29] = test system: Prevotella melaninogenica; assay: Antibacterial activity against Prevotella melaninogenica by CLSI agar dilution method; type: functional
[30] = test system: Prevotella buccae; assay: Antibacterial activity against Prevotella buccae assessed as susceptible isolates by CLSI agar dilution method; type: functional, Segatella buccae
[31] = test system: Prevotella bivia; assay: Antibacterial activity against Prevotella bivia assessed as susceptible isolates by CLSI agar dilution method; type: functional
[32] = test system: Prevotella intermedia; assay: Antibacterial activity against Prevotella intermedia assessed as susceptible isolates by CLSI agar dilution method; type: functional
[33] = test system: Prevotella melaninogenica; assay: Antibacterial activity against Prevotella melaninogenica assessed as susceptible isolates by CLSI agar dilution method; type: functional
[34] = test system: Prevotella buccae; assay: Antibacterial activity against Prevotella buccae assessed as resistant isolates by CLSI agar dilution method; type: functional, Segatella buccae
[35] = test system: Prevotella bivia; assay: Antibacterial activity against Prevotella bivia assessed as resistant isolates by CLSI agar dilution method; type: functional
[36] = test system: Prevotella intermedia; assay: Antibacterial activity against Prevotella intermedia assessed as resistant isolates by CLSI agar dilution method; type: functional
[37] = test system: Prevotella melaninogenica; assay: Antibacterial activity against Prevotella melaninogenica assessed as resistant isolates by CLSI agar dilution method; type: functional
[38] = test system: Veillonella parvula; assay: Antibacterial activity against Veillonella parvula by CLSI agar dilution method; type: functional
[39] = test system: Clostridium perfringens; assay: microbe, parasite or virus in culture; type: functional
[40] = test system: Clostridium paraputrificum; assay: Antibacterial activity against beta-lactamase producing Clostridium paraputrificum by CLSI agar dilution method; type: functional
[41] = test system: Clostridium septicum; assay: Antibacterial activity against beta-lactamase producing Clostridium septicum by CLSI agar dilution method; type: functional
[42] = test system: Clostridium tertium; assay: Antibacterial activity against beta-lactamase producing Clostridium tertium by CLSI agar dilution method; type: functional
[43] = test system: Clostridium paraputrificum; assay: Antibacterial activity against beta-lactamase producing Clostridium paraputrificum assessed as susceptible isolates by CLSI agar dilution method; type: functional
[44] = test system: Clostridium septicum; assay: Antibacterial activity against beta-lactamase producing Clostridium septicum assessed as susceptible isolates by CLSI agar dilution method; type: functional
[45] = test system: Clostridium tertium; assay: Antibacterial activity against beta-lactamase producing Clostridium tertium assessed as susceptible isolates by CLSI agar dilution method; type: functional
[46] = test system: Bacteroides fragilis; assay: Antibacterial activity against Bacteroides fragilis by CLSI agar dilution method; type: functional
[47] = test system: Bacteroides thetaiotaomicron; assay: Antibacterial activity against beta-lactamase producing Bacteroides thetaiotaomicron by CLSI agar dilution method; type: functional
[48] = test system: Clostridium paraputrificum; assay: Antibacterial activity against beta-lactamase producing Clostridium paraputrificum assessed as resistant isolates by CLSI agar dilution method; type: functional
[49] = test system: Clostridium septicum; assay: Antibacterial activity against beta-lactamase producing Clostridium septicum assessed as resistant isolates by CLSI agar dilution method; type: functional
[50] = test system: Clostridium tertium; assay: Antibacterial activity against beta-lactamase producing Clostridium tertium assessed as resistant isolates by CLSI agar dilution method; type: functional
[51] = test system: Peptostreptococcus anaerobius; assay: Antibacterial activity against beta-lactamase producing Peptostreptococcus anaerobius by CLSI agar dilution method; type: functional
[52] = test system: Peptostreptococcus anaerobius; assay: Antibacterial activity against beta-lactamase producing Peptostreptococcus anaerobius assessed as susceptible isolates by CLSI agar dilution method; type: functional
[53] = test system: Peptostreptococcus anaerobius; assay: Antibacterial activity against beta-lactamase producing Peptostreptococcus anaerobius assessed as resistant isolates by CLSI agar dilution method; type: functional
[54] = test system: Parvimonas micra; assay: Antibacterial activity against beta-lactamase producing Micromonas micros by CLSI agar dilution method; type: functional
[55] = test system: Parvimonas micra; assay: Antibacterial activity against beta-lactamase producing Micromonas micros assessed as susceptible isolates by CLSI agar dilution method; type: functional
[56] = test system: Parvimonas micra; assay: Antibacterial activity against beta-lactamase producing Micromonas micros assessed as resistant isolates by CLSI agar dilution method; type: functional
[57] = test system: Peptoniphilus asaccharolyticus; assay: Antibacterial activity against beta-lactamase producing Peptoniphilus asaccharolyticus by CLSI agar dilution method; type: functional
[58] = test system: Peptoniphilus asaccharolyticus; assay: Antibacterial activity against beta-lactamase producing Peptoniphilus asaccharolyticus assessed as susceptible isolates by CLSI agar dilution method; type: functional
[59] = test system: Peptoniphilus asaccharolyticus; assay: Antibacterial activity against beta-lactamase producing Peptoniphilus asaccharolyticus assessed as resistant isolates by CLSI agar dilution method; type: functional
[60] = test system: Finegoldia magna; assay: Antibacterial activity against beta-lactamase producing Finegoldia magna by CLSI agar dilution method; type: functional
[61] = test system: Finegoldia magna; assay: Antibacterial activity against beta-lactamase producing Finegoldia magna assessed as susceptible isolates by CLSI agar dilution method; type: functional
[62] = test system: Finegoldia magna; assay: Antibacterial activity against beta-lactamase producing Finegoldia magna assessed as resistant isolates by CLSI agar dilution method; type: functional

C[C@@H](O)[C@H]1C(=O)N2C(C(=O)O)=C(SCCNC=N)C[C@H]12 [IMIPENEM ANHYDROUS]
93%: Activity [1] | Activity [3]
4 µg/mL: MIC90 [5] | MIC90 [8] | MIC90 [11] | MIC90 [14] | MIC90 [15] | MIC90 [16] | MIC90 [17] | MIC90 [46] | MIC90 [47]
6%: Activity [34] | Activity [35] | Activity [36] | Activity [37]
0.25 µg/mL: MIC50 [26] | MIC50 [27] | MIC50 [28] | MIC50 [29] | MIC50 [39] | MIC50 [40] | MIC50 [41] | MIC50 [42]
85%: Activity [43] | Activity [44] | Activity [45]
0%: Activity [4] | Activity [53] | Activity [56] | Activity [59] | Activity [62]
3%: Activity [2]
1 µg/mL: MIC50 [5] | MIC50 [8] | MIC50 [11]
96%: Activity [6] | Activity [9] | Activity [12] | Activity [18] | Activity [19] | Activity [20] | Activity [21]
100%: Activity [52] | Activity [55] | Activity [58] | Activity [61]
8 µg/mL: MIC90 [39] | MIC90 [40] | MIC90 [41] | MIC90 [42]
94%: Activity [30] | Activity [31] | Activity [32] | Activity [33]
0.06 µg/mL: MIC50 [51] | MIC50 [54] | MIC50 [57] | MIC50 [60]
4%: Activity [7] | Activity [10] | Activity [13] | Activity [22] | Activity [23] | Activity [24] | Activity [25] | Activity [48] | Activity [49] | Activity [50]
0.01 µg/mL: MIC [14] | MIC [15] | MIC [16] | MIC [17]
0.12 µg/mL: MIC [38]
0.5 µg/mL: MIC50 [14] | MIC50 [15] | MIC50 [16] | MIC50 [17] | MIC90 [26] | MIC90 [27] | MIC90 [28] | MIC90 [29] | MIC50 [46] | MIC50 [47] | MIC90 [51] | MIC90 [54] | MIC90 [57] | MIC90 [60]

CO[C@@]1(NC(=O)CSCC#N)C(=O)N2C(C(=O)O)=C(CSc3nnnn3C)CS[C@@H]21 [CEFMETAZOLE]
0.5 µg/mL: MIC50 [51] | MIC50 [54] | MIC50 [57] | MIC50 [60]
97%: Activity [52] | Activity [55] | Activity [58] | Activity [61]
1 µg/mL: MIC50 [14] | MIC50 [15] | MIC50 [16] | MIC50 [17] | MIC50 [39] | MIC50 [40] | MIC50 [41] | MIC50 [42]
16 µg/mL: MIC90 [39] | MIC90 [40] | MIC90 [41] | MIC90 [42] | MIC50 [46]
0%: Activity [22] | Activity [23] | Activity [24] | Activity [25] | Activity [48] | Activity [49] | Activity [50] | Activity [53] | Activity [56] | Activity [59] | Activity [62]
94%: Activity [30] | Activity [31] | Activity [32] | Activity [33]
2 µg/mL: MIC90 [14] | MIC90 [15] | MIC90 [16] | MIC90 [17] | MIC50 [26] | MIC50 [27] | MIC50 [28] | MIC50 [29]
44%: Activity [6] | Activity [9] | Activity [12]
8 µg/mL: MIC90 [26] | MIC90 [27] | MIC90 [28] | MIC90 [29] | MIC90 [51] | MIC90 [54] | MIC90 [57] | MIC90 [60]
32 µg/mL: MIC50 [5] | MIC50 [8] | MIC50 [11] | MIC50 [47]
64 µg/mL: MIC90 [46] | MIC90 [47]
6%: Activity [34] | Activity [35] | Activity [36] | Activity [37]
13%: Activity [2]
100%: Activity [18] | Activity [19] | Activity [20] | Activity [21]
30%: Activity [7] | Activity [10] | Activity [13]
128 µg/mL: MIC90 [5] | MIC90 [8] | MIC90 [11]
20%: Activity [3]
17%: Activity [4]
> 0.25 µg/mL: MIC [38]
89%: Activity [43] | Activity [44] | Activity [45]
72%: Activity [1]
